ChEMBL document CHEMBL4190398, “Detailed Exploration around 4-Aminoquinolines Chemical Space to Navigate the Lysine Methyltransferase G9a and DNA Methyltransferase Biological Spaces” (J Med Chem, 2018)

What was measured:
[1] = test system: THLE-2; assay: Cytotoxicity against human THLE2 cells assessed as reduction in cell viability after 72 hrs by MTS assay; format: cell-based; conditions: thle-2, 72 h
[2] = Metabolic stability in mouse liver microsomes assessed as parent compound remaining at 1 uM preincubated for 10 mins followed by NADP addition measured after 20 mins by LC-MS/MS analysis; format: ADME, microsome; conditions: read-out: Stability
[3] = Metabolic stability in human liver microsomes assessed as parent compound remaining at 1 uM preincubated for 10 mins followed by NADP addition measured after 20 mins by LC-MS/MS analysis; format: ADME, microsome; conditions: read-out: Stability

SMILES | LC50 [1] [µM] | remaining at 20 min, 1 µM [2] [%] | remaining at 20 min, 1 µM [3] [%]
CCc1ccc(-c2cc(NC3CCN(C)CC3)c3cc(OC)c(OCCCN4CCCC4)cc3n2)o1 | 2.32 |  | 
COc1cc2c(NC3CCN(C)CC3)cc(-c3ccc(C)o3)nc2cc1OCCCN1CCCC1 | 1.78 |  | 
COc1cc2c(NC3CCN(C)CC3)cc(-c3ccc(C)o3)nc2cc1OCC1CCN(C)CC1 | 1.03 |  | 
COc1cc2c(NCC3CCN(C(C)C)CC3)cc(-c3ccc(C)o3)nc2cc1OCCCN1CCCC1 | 0.777 |  | 
CCc1ccc(-c2cc(NC3CCC34CCN(C)CC4)c3cc(OC)c(OCCCN4CCCC4)cc3n2)o1 (stereo not drawn) | 0.517 |  | 
COc1cc2c(NC3CC4(CCN(C(C)C)CC4)C3)cc(-c3ccc(C)o3)nc2cc1OCCCN1CCCC1 | 0.841 |  | 
CCc1ccc(-c2cc(NC3CCN(C)CC3)c3cc(OC)c(OCCCN4CCC5(CC5)C4)cc3n2)o1 | 2.04 |  | 
COc1cc2c(NC3CC4CCC(C3)N4C)cc(-c3ccc(C)o3)nc2cc1OCCCN1CCCC1 (stereo not drawn) | 4.15 | 43.9 | 60.3
COc1cc2c(NC3CC4(CCN(C)CC4)C3)cc(-c3ccc(C)o3)nc2cc1OCCCN1CCCC1 | 0.992 | 40.6 | 68.6
COc1cc2c(NC3C4CCC3CN(C)C4)cc(-c3ccc(C)o3)nc2cc1OCCCN1CCCC1 (stereo not drawn) | 0.527 |  | 
CCc1ccc(-c2cc(NC3CCN(C)CC3)c3cc(OC)c(OCCCN(C)C)cc3n2)o1 | 3.52 |  | 
COc1cc2c(NCC3CCN(C)CC3)cc(-c3ccc(C)o3)nc2cc1OCCCN1CCCC1 | 1.3 |  | 
COc1cc2c(NC3CCN(C)CC3)cc(-c3ccc(C)o3)nc2cc1OCC1CCNCC1 | 24.8 |  | 
COc1cc2c(NC3CCC34CCN(C)CC4)cc(-c3ccc(C)o3)nc2cc1OCCCN1CCCC1 (stereo not drawn) | 0.731 | 53.3 | 80.4
CCc1ccc(-c2cc(NC3CCN(C)CC3)c3cc(OC)c(OCCCN4CCCCC4)cc3n2)o1 | 1.38 |  | 
CCc1ccc(-c2cc(NCC3C4CCC3CN(C)C4)c3cc(OC)c(OCCCN4CCCC4)cc3n2)o1 (stereo not drawn) | < 0.164 |  | 
COc1cc2c(NC3CCC34CCN(C)C4)cc(-c3ccc(C)o3)nc2cc1OCCCN1CCCC1 (stereo not drawn) | 1.98 |  | 
CCc1ccc(-c2cc(NCC3CCN(C)CC3)c3cc(OC)c(OCCCN4CCCC4)cc3n2)o1 | 0.954 | 59.1 | 69
COc1cc2c(NC3CC4(CCN(C)CC4)C3)cc(-c3ccc(C)o3)nc2cc1OCC1CCN(C)CC1 | 2.53 |  | 
COc1cc2c(NC3CCN(C)CC3)cc(-c3ccc(C)o3)nc2cc1OC1CC2(C1)CN(C)C2 | 0.698 | 43.3 | 49.8
Cc1ccc(-c2cc(NC3CCN(C)CC3)c3cc(Cl)c(OCCCN4CCCC4)cc3n2)o1 | 2.31 | 81.7 | 81.7
COc1cc2c(NC3CC4(CCN(C)C4)C3)cc(-c3ccc(C)o3)nc2cc1OCCCN1CCCC1 (stereo not drawn) | 8.38 |  | 
COc1cc2c(NC3CC4(CCN(C(C)C)CC4)C3)cc(-c3ccc(C)o3)nc2cc1OC1CC2(C1)CN(C)C2 (stereo not drawn) | 4.65 |  | 
COc1cc2c(NC3CCN(C)C(=O)C3)cc(-c3ccc(C)o3)nc2cc1OCCCN1CCCC1 (stereo not drawn) | 7.95 | 71.9 | 82.7
